Experimental data taken from patent publication US20200172473A1, “DUAL MODULATORS OF FARNESOID X RECEPTOR AND SOLUBLE EPOXIDE HYDROLASE” (JOHANN WOLFGANG GOETHE-UNIVERSITÄT FRANKFURT AM MAIN, priority 2017, published 2020).
Values after ≈ are worked out from the molar mass of the structure shown. “Also recorded” adds a separate entry of the source. Like-named read-outs stand apart in the source and are kept apart here.

Tests used:
[1] = system: HepG2 cells; assay: WST-1 cytotoxicity assay; assay type: cell-based; conditions: up to 100 μM
[2] = system: PPARγ target gene FATP; assay: PPARγ target gene FATP mRNA quantification from mouse livers; assay type: in vivo; conditions: 10 mg/kg p.o., 8 h post dose; vehicle 101±1
[3] = target: T1, PPARγ (Homo sapiens, UniProt P37231); assay: Gal4-hybrid reporter gene assay PPARγ in HEK293T cells; assay type: cell-based
T1 construct: pFA-CMV-hPPARγ-LBD; expressed in transfected cells; host or cells: HEK293T
T1 sequence (P37231 238-503 limits assumed): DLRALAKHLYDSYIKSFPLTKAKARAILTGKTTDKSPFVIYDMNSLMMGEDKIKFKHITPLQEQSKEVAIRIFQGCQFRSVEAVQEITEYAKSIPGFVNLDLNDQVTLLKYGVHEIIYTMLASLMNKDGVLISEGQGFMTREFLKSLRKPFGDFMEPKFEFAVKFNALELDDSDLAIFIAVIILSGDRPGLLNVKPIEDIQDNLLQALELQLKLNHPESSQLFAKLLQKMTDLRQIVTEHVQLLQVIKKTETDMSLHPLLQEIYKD
Description: Hybrid reporter gene assays for PPARα/γ/δ, LXRα/β, RXRα/β/γ, RARα/β/γ, VDR and PXR Plasmids: The Gal4-fusion receptor plasmids pFA-CMV-hPPARα-LBD^52, pFA-CMV-hPPARγ-LBD^52, pFA-CMV-hPPARδ-LBD^52, pFA-CMV-hLXRα-LBD^32 and pFA-CMV-hLXRβ-LBD^32 have been reported previously. […] Frame and sequence of all fusion receptors were verified by sequencing. pFR-Luc (Stratagene) was used as reporter plasmid and pRL-SV40 (Promega) for normalization of transfection efficiency and cell growth.
Assay procedure: HEK293T cells were grown in DMEM high glucose, supplemented with 10% FCS, sodium pyruvate (1 mM), penicillin (100 U/mL) and streptomycin (100 μg/mL) at 37° C. and 5% CO2. The day before transfection, HEK293T cells were seeded in 96-well plates (2.5·10^4 cells/well). Before transfection, medium was changed to Opti-MEM without supplements. Transient transfection was carried out using Lipofectamine LTX reagent (Invitrogen) according to the manufacturer's protocol with pFR-Luc (Stratagene), pRL-SV40 (Promega) and pFA-CMV-hRXRα-LBD. 5 h after transfection, medium was changed to Opti-MEM supplemented with penicillin (100 U/mL), streptomycin (100 μg/mL), now additionally containing 0.1% DMSO and the respective test compound or 0.1% DMSO alone as untreated control. Each concentration was tested in triplicates and each experiment was repeated independently at least three times. […] Luminescence was measured with an Infinite M200 luminometer (Tecan Deutschland GmbH). […] Fold activation was obtained by dividing the mean RLU of a test compound at a respective concentration by the mean RLU of untreated control. Relative activation was obtained by dividing the fold activation of a test compound at a respective concentration by the fold activation of a respective reference agonist at 1 μM (PPARα: GW7647; PPARγ: pioglitazone; PPARδ: L165,041; LXRα/β: T0901317; RXRs: bexarotene; RARs: tretinoin; VDR calcitriol; PXR: SR12813).

[4] = aqueous solubility; assay type: physicochemical; conditions: LLOQ 0.1 μg/mL
[5] = target: T2, FXR-LBD (Homo sapiens, UniProt Q96RI1); assay: isothermal titration calorimetry (ITC); assay type: binding
T2 sequence (Q96RI1 262-486 limits assumed): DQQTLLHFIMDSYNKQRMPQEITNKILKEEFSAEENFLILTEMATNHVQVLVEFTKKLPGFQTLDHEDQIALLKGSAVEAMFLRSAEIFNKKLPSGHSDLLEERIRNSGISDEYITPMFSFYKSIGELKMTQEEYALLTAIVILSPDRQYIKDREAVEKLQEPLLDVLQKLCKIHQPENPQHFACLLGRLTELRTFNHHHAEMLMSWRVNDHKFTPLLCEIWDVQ

[6] = target: T3, recombinant human sEH (Homo sapiens, UniProt P34913); assay: fluorescence-based sEH activity assay with PHOME substrate; assay type: biochemical
T3 sequence (P34913 1-555): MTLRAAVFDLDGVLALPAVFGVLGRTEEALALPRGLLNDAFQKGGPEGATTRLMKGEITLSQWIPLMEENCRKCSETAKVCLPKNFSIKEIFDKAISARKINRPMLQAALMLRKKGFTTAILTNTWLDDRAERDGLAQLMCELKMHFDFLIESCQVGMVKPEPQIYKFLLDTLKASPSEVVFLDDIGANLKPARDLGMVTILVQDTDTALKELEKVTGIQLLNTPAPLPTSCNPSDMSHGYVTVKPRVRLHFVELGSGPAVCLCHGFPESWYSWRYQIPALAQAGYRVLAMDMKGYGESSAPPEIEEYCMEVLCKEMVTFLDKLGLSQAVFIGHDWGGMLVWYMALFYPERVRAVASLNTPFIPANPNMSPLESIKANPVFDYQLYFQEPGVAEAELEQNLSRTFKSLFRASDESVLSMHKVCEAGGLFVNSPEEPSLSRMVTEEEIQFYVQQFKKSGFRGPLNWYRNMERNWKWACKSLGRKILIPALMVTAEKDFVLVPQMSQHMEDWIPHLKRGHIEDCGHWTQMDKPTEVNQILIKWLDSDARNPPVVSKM
Description: This assay is based on a reporter construct containing a firefly luciferase under the control of the FXR response element from bile salt export protein (BSEP). FXR and its hetero dimer partner retinoid X receptor (RXR) as expression constructs under the control of a CMV promoter as well as a constitutively expressed renilla luciferase (SV40 promoter) for normalization and toxicity control were co-transfected. […] The sEH inhibitory potency of the test compounds was quantified in a fluorescence-based assay using recombinant enzyme and the fluorogenic sEH substrate PHOME^37 that is hydrolyzed to a fluorescent 6-methoxynaphtaldehyde by sEH.
The sEH inhibitory potency of the compounds were determined in a fluorescence-based 96-well sEH activity assay using recombinant human enzyme^50,51. Non-fluorescent PHOME (3-phenylcyano-(6-methoxy-2-naphthalenyl)methyl ester 2-oxiraneacetic acid; Cayman Chemicals) which can be hydrolyzed by the sEH to fluorescent 6-methoxynaphthaldehyde served as substrate. Recombinant human sEH (in Bis-Tris buffer, pH 7, with 0.1 mg/mL BSA containing a final concentration of 0.01% Triton-X 100) was pre-incubated with test compounds (in DMSO, final DMSO concentration: 1%) for 30 min at room temperature. […] A blank control (no protein and no compound) as well as a positive control (no compound) were executed. All experiments were conducted in triplicate and repeated in at least three independent experiments. For IC50 calculation, dose-response curves of increasing compound concentrations were recorded.

For CC(C)(C)c1ccc(C(=O)NCc2ccc(NS(C)(=O)=O)cc2Cl)cc1 [compound 57, 4-(tert-Butyl)-N-(2-chloro-4-(methylsulfonamido)benzyl)benzamide], which “cytotoxicity in WST-1 assay” value [1] is on record?
Its value is “no cytotoxic activity; also recorded: no cytotoxicity”.

And the “FATP mRNA in mouse liver compared to vehicle set as 100%” value [2]?
The value was “not affected”.

And the “selectivity for FXR amongst nuclear receptors” value [3]?
The value was at least 720.

What about the PPARγ max. activation ([3]; relative to pioglitazone at 1 μM) of the same compound?
Its PPARγ max. activation is 30±1%.

And the EC50 ([3]; weak partial agonism)?
The EC50 was 14.7 ± 0.9 µM.

What about the aqueous solubility [4] of the same compound?
Its aqueous solubility is 1.5 µg/mL (≈ 3.8 µM).

And the Kd [5]?
Its Kd is 0.13 µM.

And the “ΔH (ITC)” value [5]?
Its value is -81.6 kJ/mol.

And the “ΔS (ITC)” value [5]?
The value was −34.0 cal/mol·K.

And the IC50 ([6]; read-out: IC50 for sEH inhibition)?
Its IC50 is 0.0041 ± 0.0004 µM.

And the IC50 ([6]; recombinant human sEH, PHOME, read-out: sEH inhibition IC50)?
Its IC50 is 0.0041 ± 0.0004 µM.
